Reference: patent publication US20260248922A1, “TREATMENT OF SIGNS, SYMPTOMS AND/OR COMPLICATIONS OF VIRAL, BACTERIAL, PROTOZOAL, AND/OR FUNGAL INFECTIONS BY HIGH PENETRATION PRODRUGS” (priority 2022, published 2026)
Read-outs that look alike come from different tables or passages of the source.

Tests used:
[1] = rabbit
[2] = system: H1N1 virus; experiment: H1N1 virus infection mouse model (Example 67); type: in vivo, mice; conditions: transdermal once a day
Experimental: A total of seventy mice (7 groups, 10/group) were used in this study. At day 0, mice were anesthetized with isoflurane and held in a dorsal recumbent position for administration of 0.1×TCID50/mouse virus (new batch) by internasal instillation, from day 2 post challenge, mice were received a single dose of different concentrations of test article or vehicle control once a day up to 15th day with dose initiation on day 2 post challenge. Group 1 served as an infected control group and was treated with vehicle (35% ethanol). 7% of (pyrrolidin-2-yl)methyl 2-[(2,3-dimethylphenyl)amino]benzoate hydrochloride in 35% ethanol (low dose: 25.0 mg/kg, group 2, mid dose: 50.1 mg/kg, group 3, and high dose: 100.1 mg/kg, group 4) and 7% of (pyrrolidin-2-yl)methyl α-methyl-4-(2-thienylcarbonyl)benzeneacetate hydrochloride in 35% ethanol (low dose: 24.9 mg/kg, group 5, mid dose: 49.8 mg/kg, group 6, and high dose: 99.6 mg/kg, group 7) and vehicle (35% ethanol) were given by transdermal on the back of animal in an area of 2 cm×5 cm, 1.5 cm×3.5 cm, or 1 cm×2.5 cm for high, middle or low dose. Mice were observed following viral challenge for clinical signs of illness including body weights, health score, morbidity and mortality.
Lung lesions and peribronchiolitis of all deceased and surviving animals were characterized (Table 11).

[3] = system: H1N1 virus; experiment: H1N1 virus infection mouse model (Example 68); type: in vivo, mice; conditions: transdermal once a day
Experimental: A total of seventy mice (7 groups, 10/group) were used in this study. At day 0, mice were anesthetized with isoflurane and held in a dorsal recumbent position for administration of 0.1×TCID50/mouse virus (new batch) by internasal instillation, from day 2 post challenge, mice were received a single dose of different concentrations of test article or vehicle control once a day up to 15th day with dose initiation on day 2 post challenge. Group 1 served as an infected control group and was treated with vehicle (35% ethanol). 7% (pyrrolidin-2-yl)methyl 5-(2,4-difluorophenyl) salicylate hydrochloride in 35% ethanol (low dose: 25.0 mg/kg, group 2, mid dose: 49.9 mg/kg, group 3, and high dose: 99.8 mg/kg, group 4) and 7% (pyrrolidin-2-yl)methyl 5-(2,4-difluorophenyl) acetylsalicylate hydrochloride in 35% ethanol (low dose: 24.7 mg/kg, group 5, mid dose: 49.4 mg/kg, group 6, and high dose: 98.7 mg/kg, group 7) and vehicle (35% ethanol) were given by transdermal on the back of animal in an area of 2 cm×5 cm, 1.5 cm×3.5 cm, or 1 cm×2.5 cm for high, middle or low dose. Mice were observed following viral challenge for clinical signs of illness including body weights, health score, morbidity and mortality.
Lung lesions and peribronchiolitis of all deceased and surviving animals were characterized (Table 13).

[4] = system: H1N1 virus; experiment: H1N1 virus infection mouse model (Example 66); type: in vivo, mice; conditions: transdermal once a day
Experimental: (§1) A total of seventy mice (7 groups, 10/group) were used in this study. At day 0, mice were anesthetized with isoflurane and held in a dorsal recumbent position for administration of 0.1×TCID50/mouse virus (new batch) by internasal instillation, from day 2 post challenge, mice were received a single dose of different concentrations of test article or vehicle control once a day up to 15th day with dose initiation on day 2 post challenge. Group 1 served as an infected control group and was treated with vehicle (35% ethanol). […] Mice were observed following viral challenge for clinical signs of illness including body weights, health score, morbidity and mortality.
Lung lesions and peribronchiolitis of all deceased and surviving animals were characterized (Table 9).

[5] = system: cecal slurry-induced sepsis; experiment: Cecal slurry-induced sepsis mouse model (Example 75); type: in vivo, C57/BL6 mice; conditions: transdermal once a day
Experimental: as §1, with “seventy C57/BL6” for “seventy”, “of 10 mg/mouse cecal slurry” for “of 0.1×TCID50/mouse virus (new batch)”, “by intraperitoneal (IP) injections,” for “by internasal instillation,”, “from hour” for “from day”, “on hour” for “on day”

[6] = system: LPS-induced fever; experiment: Antipyretic activity, fever induced by LPS in rats; type: in vivo, Sprague Dawley rats
Experimental: The body temperature of rats was taken at 0 (2 hours after the challenge), 90 min, 180 min, and 270 min after the administration of the test compounds.

[7] = system: paw edema; experiment: Antiinflammatory activity, carrageenan paw edema in rats; type: in vivo, Wistar Rats; conditions: topical, 100 mg/kg

Structure (SMILES)	The cumulative amount of test compounds ([1]; 1 h)	The cumulative amount of test compounds ([1]; 2 h)	The cumulative amount of test compounds ([1]; 4 h)	The cumulative amount of test compounds ([1]; 8 h)	further results
CN(C)C(=O)CCS[C@H](SCCC(=O)O)c1cccc(/C=C/c2ccc3ccc(Cl)cc3n2)c1 [Parent drug-4]	0.001 mg	0.001 mg	0.001 mg	0.002 mg	–
Cc1cccc(Nc2ccccc2C(=O)OCC2CCCN2)c1C.Cl (centres unmarked) [Example 17, (pyrrolidin-2-yl)methyl 2-[(2,3-dimethylphenyl)amino]benzoate hydrochloride]	–	–	–	–	survival ([2]; group 2, low dose 25.0 mg/kg): 30%; survival ([2]; group 3, mid dose 50.1 mg/kg): 50%; survival ([2]; group 4, high dose 100.1 mg/kg): 50%
CC(=O)Oc1ccc(-c2ccc(F)cc2F)cc1C(=O)OCC1CCCN1.Cl (centres unmarked) [Example 28, (pyrrolidin-2-yl)methyl 5-(2,4-difluorophenyl) acetylsalicylate hydrochloride]	–	–	–	–	survival ([3]; group 5, low dose 24.7 mg/kg): 40%; survival ([3]; group 6, mid dose 49.4 mg/kg): 60%; survival ([3]; group 7, high dose 98.7 mg/kg): 70%
O=C(O)C(c1ccc(OCc2ccc3ccccc3n2)cc1)C1CCCC1 (centres unmarked) [Parent drug-5]	0.001 mg	0.001 mg	0.001 mg	0.002 mg	–
CC(c1cc2ccccc2s1)N(O)C(N)=O (centres unmarked) [Parent drug-6]	0.001 mg	0.001 mg	0.001 mg	0.003 mg	–
CC(C)c1ccc2c(c1)c(SC(C)(C)C)c(CC(C)(C)C(=O)O)n2Cc1ccc(Cl)cc1 [Parent drug-2]	0.001 mg	0.001 mg	0.001 mg	0.003 mg	–
Cl.O=C(OCC1CCCN1)c1cc(-c2ccc(F)cc2F)ccc1O (centres unmarked) [Example 27, (pyrrolidin-2-yl)methyl 5-(2,4-difluorophenyl) salicylate hydrochloride]	–	–	–	–	survival ([3]; group 2, low dose 25.0 mg/kg): 30%; survival ([3]; group 3, mid dose 49.9 mg/kg): 50%; survival ([3]; group 4, high dose 99.8 mg/kg): 60%
O=C(O)Cc1ccccc1Nc1c(Cl)cccc1Cl [Parent drug-8]	0.000 mg	0.001 mg	0.002 mg	0.003 mg	–
CC(C(=O)OCC1CCCN1)c1ccc(C(=O)c2cccs2)cc1.Cl (stereo not drawn) [Example 33, (pyrrolidin-2-yl)methyl α-methyl-4-(2-thienylcarbonyl)benzeneacetate hydrochloride]	–	–	–	–	survival ([2]; group 5, low dose 24.9 mg/kg): 60%; survival ([2]; group 6, mid dose 49.8 mg/kg): 50%; survival ([2]; group 7, high dose 99.6 mg/kg): 40%
Cl.O=C(OCC1CCCN1)C(c1ccc(OCc2ccc3ccccc3n2)cc1)C1CCCC1 (centres unmarked) [Example 6, (pyrrolidin-2-yl)methyl 2-cyclopentyl-2-[4-(quinolin-2-ylmethoxy)phenyl]acetate hydrochloride]	0.52 mg	1.03 mg	2.10 mg	4.19 mg	–
CC(=O)O.CCN(CC)CCOC(=O)CC1=C(C)/C(=C/c2ccc([S+](C)[O-])cc2)c2ccc(F)cc21 (centres unmarked) [Example 8]	–	–	–	–	survival ([4]; group 5, low dose 25.5 mg/kg): 60%; survival ([4]; group 6, mid dose 50.9 mg/kg): 70%; survival ([4]; group 7, high dose 101.9 mg/kg): 50%
CCCc1c(OCCCS(=O)(=O)c2ccc(C(=O)CCC(=O)OCC3CCCN3)cc2)ccc(C(C)=O)c1O.Cl (centres unmarked) [Example 19]	0.50 mg	1.02 mg	2.18 mg	4.48 mg	–
CC(C(=O)OCC1CCCN1)c1cccc(Oc2ccccc2)c1.Cl (centres unmarked) [Example 30, (pyrrolidin-2-yl)methyl 2-(3-phenoxyphenyl) propionate hydrochloride]	–	–	–	–	survival ([5]; group 2, low dose 25.1 mg/kg): 10%; survival ([5]; group 3, mid dose 50.2 mg/kg): 30%; survival ([5]; group 4, high dose 100.3 mg/kg): 40%
CN(C)C(=O)CCSC(SCCC(=O)OCC1CCCN1)c1cccc(/C=C/c2ccc3ccc(Cl)cc3n2)c1.Cl (centres unmarked) [Example 7, (pyrrolidin-2-yl)methyl 3-[[3-[(E)-2-(7-chloroquinolin-2-yl)ethenyl]phenyl]-[3-(dimethylamino)-3-oxopropyl]sulfanylmethyl]sulfanylpropanoate hydrochloride]	0.46 mg	1.01 mg	2.09 mg	4.29 mg	–
CCN(CC)CCOC(=O)CC1(CS[C@H](CCc2ccccc2C(C)(C)O)c2cccc(C=Cc3ccc4ccc(Cl)cc4n3)c2)CC1.Cl [Example 3]	0.36 mg	0.78 mg	1.77 mg	3.87 mg	–
CC(C(=O)OCC1CCCN1)c1ccc(-c2ccccc2)c(F)c1.Cl (centres unmarked) [Example 15, (pyrrolidin-2-yl)methyl 2-(2-fluorobiphenyl-4-yl) propanoate hydrochloride]	–	–	–	–	body temperature (Mean) ([6]; T = 0 min (2 hours after LPS challenge), transdermal, 20 mg/kg): 38.30; body temperature (Mean) ([6]; T = 90 min, transdermal, 20 mg/kg): 37.37; body temperature (Mean) ([6]; T = 180 min, transdermal, 20 mg/kg): 36.78; body temperature (Mean) ([6]; T = 270 min, transdermal, 20 mg/kg): 36.65; survival ([4]; group 2, low dose 25.0 mg/kg): 40%; survival ([4]; group 3, mid dose 50.0 mg/kg): 50%; survival ([4]; group 4, high dose 100.0 mg/kg): 60%
CCCc1c(OCCCS(=O)(=O)c2ccc(C(=O)CCC(=O)O)cc2)ccc(C(C)=O)c1O [Parent drug-1]	0.000 mg	0.001 mg	0.001 mg	0.002 mg	–
CC(C)Cc1ccc(C(C)C(=O)O)cc1 (centres unmarked) [Ibuprofen, reference compound]	–	–	–	–	body temperature (Mean) ([6]; T = 0 min (2 hours after LPS challenge), group C, topical, 100 mg/kg, 7% in 70% ethanol): 38.18; body temperature (Mean) ([6]; T = 90 min, group B, oral, 100 mg/kg): 38.01; body temperature (Mean) ([6]; T = 90 min, group C, topical, 100 mg/kg, 7% in 70% ethanol): 38.26; body temperature (Mean) ([6]; T = 180 min, group B, oral, 100 mg/kg): 37.34; body temperature (Mean) ([6]; T = 180 min, group C, topical, 100 mg/kg, 7% in 70% ethanol): 38.27; body temperature (Mean) ([6]; T = 270 min, group B, oral, 100 mg/kg): 37.02; body temperature (Mean) ([6]; T = 270 min, group C, topical, 100 mg/kg, 7% in 70% ethanol): 37.98; antipyretic activity (in words) ([6]; topical, 100 mg/kg): did not show any antipyretic activity; anti-inflammatory activity (in words) [7]: did not show any anti-inflammatory activity
